Reference: patent US8618074B2, “GPCR enhanced neuroprotection to treat brain injury” (Board of Regents of the University of Texas System, priority 2007, dated 2013)

What was measured:
astrocytes [1] = experiment: Single cell astrocyte edema (swelling) after RB-induced photothrombotic event; assay type: in vivo, mouse; conditions: tail-vein injection
Text: A critical role for mitochondrial metabolism is also supported by new data obtained from a transgenic mouse model expressing a mitochondrial targeted DNA restriction enzyme, EcoR1, under the control of doxycycline (tTA/mtEcoR1, courtesy of Dr. Chris Walters, UTHSCSA). […] In addition to optically imaging multiple physiological parameters in single cells (e.g. mitochondrial membrane potentials and Ca2+ levels in real time), we have successfully imaged single cells edema formation in response to a Rose Bengal (RB)-induced photothrombotic event in a single blood vessel. Our preliminary measurements indicate that astrocyte volume increases over 6-fold during edema formation.

astrocytes [2] = experiment: Astrocyte survival under t-buOOH oxidative stress in the absence of neurons; assay type: cell-based, mouse
Method: To determine whether P2Y-R enhanced mitochondrial metabolism in astrocytes affected neuronal resistance to oxidative stress, we prepared co-cultures of neurons and astrocytes using corning transwell-clear permeable supports, which physically separates the two cell-types by ˜1 mm (# 07-200-170, Fisher scientific). Primary cultures of astrocytes were directly prepared in transwell supports until they were ˜70% confluent. Mouse cortical neurons were then cultured onto glass bottom mattek plates and maintained in B-27/Neurobasal Medium to control glia contamination to less than 0.5% (Invitrogen). After four days, co-cultures were treated with t-buOOH (100 μM) for 4 hours with and without pre-stimulation of ATP (2 μM, 10 minutes). Cells were then stained with the DNA intercalating dye Hoechst 33342 (10 μg/ml, Molecular Probes, #H-3570) and calcein AM (2 μM, Molecular Probes, #C3100). […] We then tested the neuroprotective affects of isoform specific purinergic ligands 2-MeSADP(P2Y1-R) and UTP(P2Y2-R). FIG. 6A depicts histogram plots of the percentage of neurons alive when cocultured with young or old astrocytes. FIG. 6B depicts histogram plots of the percentage of neurons alive pretreated with either 2-MeSADP (2 μM) or UTP (50 μM) for 10 min. A ten-minute pre-treatment of astrocytes with either 2-MeSADP (2 μM), or UTP (50 μM) was equally protective against oxidative stress induced cell death. The % neurons alive after 4.5 hours of t-buOOH treatment was 51±4% (n=1664 neurons, pooled from 4 experiments) for untreated controls, 70±2% (n=2541 neurons, pooled from 4 experiments) for 2-MeSADP and 71±3% (n=1189 neurons, pooled from 4 experiments) for UTP treated co-cultures. […] The % astrocytes alive after 4.5 hours of t-buOOH treatment, in the absence of neurons, was 60±4% (n=294 cells) for control, 77±4% (n=294) for 2-MeSADP and 79±3% (n=333) for UTP treated astrocytes.
It should be noted that stimulation of neuroprotective response in astrocytes is not restricted to signaling through P2Y receptors. For example we have shown that administration of the membrane permeable IP3 analog, IP3BM, is capable of protecting astrocytes from oxidative damage. Thus, it appears possible that any stimulus capable of evoking IP3-mediated calcium release in astrocytes is equally suitable for application in the present treatment methods. To test this possibility, astrocyte cultures subjected to oxidative stress were treated with either 2-MeSADP, or the metabotropic glutamate receptor agonist (1 S, 3 R)-1-aminocyclopentane-1,3-dicarboxylic acid (ACPD), or were left untreated.
To directly examine the role of IP3 gated Ca^2+ release in P2Y-R enhanced astrocyte protection, we used a membrane permeant butyryloxymethyl ester of IP3 (IP3-BM). Cultures of astrocytes were exposed to IP3-BM and Ca^2+ levels were assessed using 2-photon imaging of Fura 2. Ca^2+ increases in response to IP3-BM application were easily detected, but they occurred over a much slower time course than those initiated by ATP treatment. This was not unexpected because of the slow process of IP3-BM movement across the lipid bilayer as well as the time needed to cleave the ester and accumulate IP3 in the cell. Because of the slower time course, we pretreated astrocytes for 20 minutes prior to exposing them to the oxidant stress t-BuOOH. […] The protective effect of IP3-BM treatment was blocked by the IP3R inhibitor, XeC. […]

astrocytes [3] = experiment: Rose Bengal induced blood clot, Fluo4 Ca2+ imaging of astrocytes in live mouse; assay type: in vivo; conditions: 2-MeSADP co-injected with Rose Bengal in tail vein; blood brain barrier breakdown at clot
Method: Our working hypothesis states that P2Y-R activation in astrocytes leads to intracellular Ca^2+ release. […] In this experiment, the Ca^2+ indicator Fluo4-AM was loaded into astrocytes (90 minutes, 100 μM). Rose Bengal (RB) and the P2Y-R specific agonist 2-MeSADP were then co-injected in the tail vein of a live mouse. RB was illuminated with green light (543 nm), inducing reactive singlet oxygen and blood clots. A blood vessel was free flowing at 180 minutes, then clotted around 220 minutes after RB injection. […] More distal astrocytes a4 and a5 were not activated.

astrocytes [4] = experiment: Confocal Ca2+ imaging of astrocytes on bath application of ATP; assay type: cell-based, mouse; conditions: bath application of ATP 1 μM; cultured young and old astrocytes
Text: The next physiological response that we investigated during aging was intracellular Ca^2+ signaling. Metabotropic purinergic receptors (P2Y-Rs) are well known to generate robust Ca^2+ signals in astrocytes. Our initial bias was that we would observe reduced Ca^2+ responses in astrocytes cultured from old mice. […] Ca^2+ measurements were made using standard confocal imaging of Ca^2+ sensitive fluorescent dyes, which loaded equally well for both young and old astrocytes. […] The first surprise finding was that a higher percentage of old astrocytes (more than half) responded to exogenously applied ATP. […] However, we can account for these observed enhancements to cytosolic Ca^2+ signaling in old astrocytes by a reduced ability of mitochondria to sequester Ca^2+ during aging. […] The ability of mitochondria to sequester Ca^2+, and thereby modulate IP3-induced Ca^2+ release, is critically dependent on the mitochondrial membrane potential (ΔΨ) and close proximity of mitochondria to the Ca^2+ release site. This proximity allows mitochondria to sense greater Ca^2+ concentrations than those present in the bulk cytosolic compartment. Consequently, a reduction in ΔΨ with age will reduce mitochondrial Ca^2+ buffering, thereby leading to increased cytosolic Ca^2+ release and faster Ca^2+ dynamics.

Row | Structure (SMILES) | astrocyte swelling (edema) (astrocytes [1]) | time to apparently complete reversal of astrocyte swelling after the initial clot (astrocytes [1]) [h] | % astrocytes alive (astrocytes [2]; absence of neurons, 4.5 hours of t-buOOH, 2-MeSADP or UTP) [%] | astrocyte resistance to oxidative stress (astrocytes [2]; astrocyte cultures subjected to oxidative stress, versus untreated) | activation (Ca2+) of astrocytes near the RB-induced clot (astrocytes [3]) | Ca2+ oscillations (astrocytes [4])
1 | CSc1nc(N)c2ncn([C@@H]3O[C@H](COP(=O)(O)OP(=O)(O)O)[C@@H](O)[C@H]3O)c2n1 [2-MeSADP] | significantly reduced swelling | ≤ 8 | 77±4 | enhanced | activate nearby astrocytes | 
2 | Nc1ncnc2c1ncn2[C@@H]1O[C@H](COP(=O)(O)OP(=O)(O)OP(=O)(O)O)[C@@H](O)[C@H]1O [ATP] |  |  |  |  |  | stimulated Ca^2+ oscillations
